Experimental data: publication PMC12974487, “Inhibition of FicD-mediated AMPylation and deAMPylation by isoprenoid diphosphates” (Proceedings of the National Academy of Sciences of the …, 2026)
Substitutions are numbered along the chain they refer to. Several values for one entry are separate records, joined by “and”; a condition that tells them apart may be missing. Equal entries are not always repeated. Where two headings read alike, the source gives them in different places.

Experiments:
Type in all cases: binding
[1] = molecular target: T1, FicD^L258D (Homo sapiens, UniProt Q9BVA6, L258D); assay: Isothermal titration calorimetry (ITC) with Δ104hFicD^L258D; details: 4 mM MgCl2, 20 °C, 1σ error interval in parenthesis
T1 construct: soluble ER luminal domain (residues 105 to 458) of wild-type human FicD and three mutants; 6xHis-Sumo (N, cleaved yes); made in house; host or cells: Rosetta(DE3) E. coli
T1 sequence (Q9BVA6 105-458 L258D): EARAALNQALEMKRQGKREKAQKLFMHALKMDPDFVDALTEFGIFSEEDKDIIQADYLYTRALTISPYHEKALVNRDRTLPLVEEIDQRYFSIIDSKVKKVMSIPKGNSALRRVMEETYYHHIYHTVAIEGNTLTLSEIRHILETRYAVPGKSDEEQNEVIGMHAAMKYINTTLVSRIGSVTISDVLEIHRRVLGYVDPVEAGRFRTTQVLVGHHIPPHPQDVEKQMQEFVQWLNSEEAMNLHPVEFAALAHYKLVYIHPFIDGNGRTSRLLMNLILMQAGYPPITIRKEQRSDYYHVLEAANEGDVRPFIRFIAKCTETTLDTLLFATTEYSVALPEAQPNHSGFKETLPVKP
From the text: To further support this notion, we used Isothermal Titration Calorimetry (ITC) to determine the Kd of FPP binding. […] In these experiments, the interaction between FPP and Mg^2+ generated endothermic peaks that interfered with detecting the interaction between FPP, Mg^2+, and FicD (Fig. 3, Upper). The stoichiometry of FPP binding to FicD was consistently <0.85, which may indicate that Mg^2+ was not saturating. Because the endothermic interaction between Mg^2+ and FPP limited the quantity of MgCl2 we could add, the measured Kd could be larger than the true value.
Fig. 3. ITC with FicD and Farnesyl-pyrophosphate. Representative ITC thermogram for FPP binding to Δ104hFicD^L258D (Upper). […] Dissociation constants (Kd) of individual replicates and global fitting of triplicate isotherms are reported with 1σ error intervals in parenthesis. TEXT PRINTED IN THE PICTURE: no label printed: Kd (nM): 32.3 (15.6, 54.9) (Replicate 1); Kd (nM): 25.6 (10.1, 47.7) (Replicate 2); Kd (nM): 45.2 (29.4, 68.8) (Replicate 3); Kd (nM): 60.3 (23.1, 126.3) (Global) DOUBTS OF THE COPYIST ABOUT THIS PICTURE: The picture prints no substance label; the table rows are replicates and a global fit of one measurement, so all four Kd values are given under one unlabeled substance. […]
Isothermal Titration Calorimetry
Proteins were dialyzed against 25mM HEPES pH 7.4/100mM KCl/10% glycerol prior to titration.
Dialyzed proteins were then spun down at 21,000G for 15 minutes at 4C to remove trace insoluble material. The protein concentration was measured spectrophotometrically and then diluted to working concentration with 25mM HEPES pH 7.4/100mM KCl/10% glycerol. MgCl2 was added to proteins to a final concentration of 4mM. ITC experiments were performed in a Micro-Cal PEAQ-ITC (Malvern Panalytical, Worcestershire, UK) calorimeter with a stirred 206.2 μL reaction cell held at 20 °C. 250μM FPP was titrated into 25uM Δ104hFicL258D with 750rpm stirring. The first injection was 0.5 μL, followed by twenty 1.9 μL injections. ITC data were integrated and baseline corrected using NITPIC 2.1.5 (10, 11). Integrated data was globally analyzed in SEDPHAT 15.b (12) using a model considering a single class of binding sites. […]
10% Lithium dodecyl sulfate, 50% glycerol, 50mM DTT, 0.05% Bromophenol blue) and then heated […]
For deAMPylation assays with FicD and BiP, Δ26hBiPT229A was in-vitro AMPylated by […]
5mM MgCl2, 500uM ATP, 0.5% CHAPS, 1mM DTT. After one hour of incubation at 30-37C, the entire reaction mix was transferred into an Amicon 0.5mL 50kDa MWCO concentrator (cat no.
7.4/150mM NaCl/10% glycerol/1mM DTT was added to the concentrated AMPylation reaction and then spun down again at 14,000 x g at 4C for 5-10 minutes. This step was repeated four times to buffer exchange AMPylated Δ26hBiPT229A.
Δ104hFicDWT and Δ26hBiPT229A-AMP were combined at a ratio of 1:80 in buffer containing 25mM HEPES pH 7.4, 100mM KCl, 5mM MgCl2, 1mM DTT and the indicated small molecule where applicable. Reactions were incubated at 37C for 1 hour and stopped by the addition EDTA. 5X SDS sample buffer (250mM Tris pH 6.8, 10% Lithium dodecyl sulfate, 50% glycerol, 50mM DTT, 0.05% Bromophenol blue) was then added to the reactions and reactions were heated for 5 minutes at […]
For in-vitro AMPylation assays with VopS and CDC42, Δ30VopS and GST-CDC42 – provided by a previous lab member – were combined at a 1:80 molar ratio in 50mM Tris pH 7.4/100mM NaCl/1mM DTT in the presence of GPP or FPP, where applicable. […]

[2] = molecular target: T1, FicD^L258D; assay: Differential scanning fluorimetry (DSF) thermal shift with FicD^L258D
Experimental: Differential Scanning Fluorimetry
Thermal shift assays were performed in Biorad CfX384 Touch Real-Time PCR Detection System […]
Reactions contained 50mM HEPES pH 7.4, 200mM NaCl, 200mM KCl, 200uM DTT, 5X Invitrogen Sypro Orange (Cat no. S6650), 8-9μM protein, and indicated nucleotide, cofactor, or small molecule in a total volume of 20uL. For every experiment ‘no protein’ controls were also included with the same reaction conditions. All reactions were performed in technical triplicates. Sealed plates containing reaction mixes were centrifuged for 1-5 min at 1000 RPM prior to temperature scanning (FRET channel), which was performed from 6°C […]
DSF data was analyzed with traditional methods automated in a Python package (https://pypi.org/project/instawell/). Briefly, for each temperature, the RFU values of technical triplicates are averaged. For each timepoint, the background fluorescence was subtracted using the RFU values of the ‘no protein’ control. […]
calculated. The melting temperature (Tm) is defined as the first derivative peak value. Data

[3] = molecular target: T2, FicD^E234G (Homo sapiens, UniProt Q9BVA6, E234G); assay: MIDAS metabolite screen, FicD^E234G; details: cutoff Q < 0.05 and |Log2 corrected fold change| > 2, metabolites 5 µM
T2 construct: soluble ER luminal domain (residues 105 to 458) of wild-type human FicD and three mutants; 6xHis-Sumo (N, cleaved yes); made in house; host or cells: Rosetta(DE3) E. coli
T2 sequence (Q9BVA6 105-458 E234G): T1 sequence (Q9BVA6 105-458 L258D) with E130G, D154L

[4] = molecular target: T1, FicD^L258D; assay: MIDAS metabolite screen, FicD^L258D; details: cutoff Q < 0.05 and |Log2 corrected fold change| > 2, metabolites 5 µM
From the text: To identify small-molecule metabolite interactions with FicD, we applied an unbiased high-throughput screening approach known as MIDAS ([44]). Given the high concentrations of protein required for MIDAS screening, we purified the soluble ER luminal domain (residues 105 to 458) of wild-type human FicD and three mutants FicD^E234G, FicD^L258D, and FicD^H363A for screening (Fig. 1A). These mutants were selected based on their well-established biochemical features ([23], [24], [31]). All three are predicted to enhance detection of protein–metabolite interactions (PMIs) relative to FicD^WT through increased affinity for nucleotide substrates (FicD^E234G), improved solubility (FicD^L258D), and loss of catalytic turnover (FicD^H363A) (Fig. 1A). To decrease the potential for nonspecific small-molecule binding, we ensured the purity of our FicD proteins (SI Appendix, Fig. S1 A and B). As reported by other investigators ([24], [31]), we observe an increase in elution volume of the FicD^L258D mutant, consistent with its monomerization (SI Appendix, Fig. S1C).
Out of the 602 naturally occurring human metabolites in the MIDAS library, we applied a significance cutoff (q value < 0.05) to identify 12 PMIs with a Log2 (corrected fold change) of >2 and two PMIs with a Log2 (corrected fold change) <-2 in the FicD^WT screen (Fig. 1B and SI Appendix, Table S2). Hits were additionally triaged based on detection of multiple adducts of the metabolite in a single dataset (FPP and […] in Fig. 1B) and identification of the same metabolites across three or more of the FicD construct screens (Fig. 1C). Three chemical classes passed this initial triage: adenosine nucleotides, isoprenoid diphosphates, and thyroid hormone intermediates (Fig. 1 B and C and SI Appendix, Tables S2–S5).
22°C. Induced cultures were then harvested by centrifugation at 8000G for 15 minutes at 4°C and […]
Bacterial pellets were resuspended in 30-50mL of 50mM Tris pH 7.4/150mM NaCl/10% glycerol with one Roche cOmplete EDTA-Free Protease inhibitor cocktail tablet (cat no. COEDTAF-RO).
Triton-X100 to a final concentration of 0.2%, Chicken-egg lysozyme to a final concentration of 0.4ug/mL, and 2-5uL of Millipore Benzonase Nuclease (cat no. 70664) were added to bacterial suspension prior to sonication at 40-50% amplitude for 1-3 minutes in pulses of 5 seconds on and 30 seconds off on ice with a Sonics VCX 750 Ultrasonicator. Bacterial lysate was then clarified by centrifugation at 30,000 x g for 30 minutes at 4°C.
Clarified lysate was rotated with Qiagen NiNTA agarose beads (cat no. 30210) for 1-2 hours at 4°C. The beads were then transferred to a 15mL conical vial, resuspended in 10-15mL wash buffer (50mM Tris pH 7.4/150mM NaCl/10% glycerol/0.2% Triton-X 100/10mM imidazole), and spun down at 1000G for 1 minute at 4°C, after which the supernatant was aspirated from the beads. This washing step was repeated 2-4 times to rinse bacterial lysate from the beads prior to on-column washing. The beads were then transferred to BioRad Econopac 20mL bed volume column (cat no.
7321010) and washed with 10-15mL of wash buffer (repeated at least three times), 10mL of ATP wash (50mM Tris pH 7.4/300mM KCl/10mM MgCl2/500uM ATP, repeated once), and finally with 10-15mL wash buffer without Triton-X 100 (repeated at least three times). Protein was eluted in 500μL-1mL elution buffer (50mM Tris pH 7.5/150mM NaCl/10% glycerol/0.5% CHAPS). […]

[5] = molecular target: T3, FicD^WT (Homo sapiens, UniProt Q9BVA6); assay: MIDAS equilibrium dialysis/mass spectrometry metabolite screen, FicD^WT; details: cutoff Q < 0.05 and |Log2 corrected fold change| > 2, metabolites 5 µM
T3 construct: soluble ER luminal domain (residues 105 to 458) of wild-type human FicD; 6xHis-Sumo (N, cleaved yes); made in house; host or cells: Rosetta(DE3) E. coli
T3 sequence (Q9BVA6 105-458): T1 sequence (Q9BVA6 105-458 L258D) with D154L

Row | Kd ([1]; read-out: Kd (ITC), Replicate 1) [nM] | Kd ([1]; read-out: Kd (ITC), Replicate 2) [nM] | Kd ([1]; read-out: Kd (ITC), Replicate 3) [nM] | Kd ([1]; read-out: Kd (ITC), global fitting of triplicate isotherms) | EC50 ([2]; FicD^L258D, 5 mM MgCl2, read-out: EC50 of DSF dose-response (ΔTm)) [nM] | Compound | MIDAS protein-metabolite interaction (enrichment/depletion) [3] | MIDAS protein-metabolite interaction (enrichment/depletion) [4] | maximal Tm shift at saturating ligand concentration ([2]; FicD^L258D, 5 mM MgCl2) | binding to FicD^L258D by DSF ([2]; absence of MgCl2) | binding to FicD^L258D by DSF ([2]; presence of 5 mM MgCl2) | MIDAS protein-metabolite interaction (enrichment/depletion) [5]
1 | 32.3 | 25.6 | 45.2 | ~60 nM and 60.3 nM and 60 nM | 9600 | CC(C)=CCC/C(C)=C/CC/C(C)=C/CO[P@@](=O)(O)OP(=O)(O)O (stereo in doubt) [FPP, farnesyl-pyrophosphate] | – | – | – | – | – | –
2 | – | – | – | – | – | deoxyadenosine diphosphate [dADP] | significantly enriched | significantly enriched | ~ 11 °C | did not bind | binding | significantly enriched
